Laboratory results published in publication PMC5917010, “Structural basis for GPR40 allosteric agonism and incretin stimulation” (Nature Communications, 2018).

What was measured:
[1] = system: GPR40 knock-out (KO) mice; assay: IPGTT in GPR40 knock-out mice; type: in vivo, mouse; details: high dose of compound 1
Experimental: Nine to ten week old male ICR mice (Envigo) and GPR40 KO mice (Taconic) were used. The day before an IPGTT (~1600), animals were fasted in clean cages. The following morning (~0800), animals were randomized on fasting glucose and body weight (N = 6 per group). Mice were orally administered a test article or vehicle 60 min prior to an intraperitoneal (IP) injection of glucose (2g/kg). Blood glucose levels were determined by a glucometer from tail bleeds taken at 0, 15, 30, 60, and 120 min after the glucose challenge. An average of two readings were reported at each time point. Also, blood samples were collected into serum tubes at 0, 3, 6, and 15 min post glucose injection for insulin measurement. Serum tubes were centrifuged at 3000g for 5 min and serum transferred into 96-well plates for insulin analysis by a Mesoscale rat/mouse insulin assay.

GPR40 KO mice = assay: OGTT in GPR40 KO mice; type: in vivo, mouse; details: high dose of compound 1
Experimental: Eight to thirteen week old male C57BL/6 or KO mice were used. The day before the study, at 1600 hours, animals were transferred into clean cages and food was removed. The following morning (~0800 hours), mice were randomized by block randomization to treatment groups (N = 5–7 per group) so each group had similar mean and standard deviation of body weight and blood glucose. […] Animals were dosed with vehicle (0.5% MC/0.25% Tween-80) or the test article by oral gavage. Group allocations were not blinded from the experimenters who collected the data. After 60 min compound treatment animals were then given an oral gavage of glucose (2 g/kg). At 0, 15, 30, 60, and 120 min post oral glucose, two glucose readings via glucometers were obtained. The average of two glucose readings was reported at each time point. Data were expressed as mean±standard error (s.e.m.). Blood glucose values were analyzed using ANOVA with repeated measures. Cook’s distance was also calculated from linear regression. All animals were included in the analysis with their individual averaged Cook’s distance < 1. Dunnett’s comparison was performed at each time point by R program. Significance is denoted at p < 0.05.

human GPR40 (A2 site) = molecular target: T1, human GPR40 (A2 site) (Homo sapiens, UniProt O14842); assay: A2 site radioligand binding with [3H]-AM-1638; details: Supplementary Table 1; read-out: Human GPR40 Binding to A2 Ki
T1 construct: full length recombinant human GPR40 (GPR40) cDNA; expressed in transfected cells; host or cells: HEK 293, stably transfected; crude cell surface membranes
T1 sequence (O14842 whole entry): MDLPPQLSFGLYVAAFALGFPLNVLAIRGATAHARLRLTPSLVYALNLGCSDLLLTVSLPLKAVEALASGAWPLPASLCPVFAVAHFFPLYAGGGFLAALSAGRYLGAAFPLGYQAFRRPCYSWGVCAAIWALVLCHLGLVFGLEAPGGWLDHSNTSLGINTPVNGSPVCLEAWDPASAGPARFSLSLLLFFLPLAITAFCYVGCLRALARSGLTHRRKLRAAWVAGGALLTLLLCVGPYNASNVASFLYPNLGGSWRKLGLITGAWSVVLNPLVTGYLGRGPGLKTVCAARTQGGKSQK
Experimental: (§1) Crude cell surface membranes were prepared from human embryonic kidney 293 (HEK 293) cells stably transfected (for the wild type) or transiently transfected (for the mutants and corresponding wild type) with full length recombinant human GPR40 (GPR40) cDNA, using differential centrifugation methods.
A2 Site Binding. 10 µL of compound diluted in 100% DMSO and 90 µL of Assay Buffer (50 mM Tris-HCl, pH 7.5, 10 mM CaCl2, 10 mM MgCl2, 0.1% w/v Bacitracin, 2.5% w/v dextran charcoal-treated FBS) were added to a deep 96-well polypropylene assay plate (Beckman Coulter). Two hundred μl of [^3H]-AM-1638 (84 Ci/mmol, Quotient Bioresearch Radiochemicals, Ltd.; 0.5 nM final concentration) and 200 µL of GPR40 membranes (5 µg/well), both diluted in Assay Buffer, were added to the assay plate, followed by a 1 min shake and a 1 h incubation at room temperature (22 °C).
(§2) Assays were terminated by filtration through GF/C glass fiber filtermats (Perkin Elmer) presoaked in 50 mM Tris–HCl, pH 7.5, using a Mach III cell harvester (TomTec). Filtermats were washed two times with 5 mL of ice-cold 50 mM Tris–HCl, pH 7.5 buffer, dried 1 h in a convection oven at 60 °C and embedded with Meltilex A solid scintillant (Perkin Elmer). Radioactivity was determined as counts per min (cpm) using a Trilux Microbeta plate scintillation counter (Perkin Elmer).

human GPR40 (A1 site) = molecular target: T2, human GPR40 (A1 site) (Homo sapiens, UniProt O14842); assay: A1 site radioligand binding with [3H]-TAK-875; details: Supplementary Table 1
T2 construct: full length recombinant human GPR40 (GPR40) cDNA; expressed in transfected cells; host or cells: HEK 293, stably transfected; crude cell surface membranes
T2 sequence (O14842 whole entry): as above
Experimental: as §1
A1 Site Binding. 10 µL of compound diluted in 100% DMSO and 90 µL of Assay Buffer (50 mM Tris-HCl, pH 7.5, 5 mM CaCl2, 5 mM MgCl2, 0.1% w/v fatty acid-free BSA) were added to a deep 96-well polypropylene assay plate (Beckman Coulter).
as §2

human GPR40 [2] = molecular target: T3, human GPR40 (Homo sapiens, UniProt O14842); assay: Human GPR40 Calcium (Supplementary Table 1); type: cell-based
T3 construct: HEK293 cells stably overexpressing full length human GPR40; expressed in transfected cells
T3 sequence (O14842 whole entry): as above

human GPR40 [3] = molecular target: T3, human GPR40; assay: Human GPR40 b-arrestin; type: cell-based
Mouse GPR40 = Mouse GPR40 (Mus musculus, UniProt Q76JU9); assay: Mouse GPR40 b-arrestin; type: cell-based
Chain of Mouse GPR40 (Q76JU9 whole entry): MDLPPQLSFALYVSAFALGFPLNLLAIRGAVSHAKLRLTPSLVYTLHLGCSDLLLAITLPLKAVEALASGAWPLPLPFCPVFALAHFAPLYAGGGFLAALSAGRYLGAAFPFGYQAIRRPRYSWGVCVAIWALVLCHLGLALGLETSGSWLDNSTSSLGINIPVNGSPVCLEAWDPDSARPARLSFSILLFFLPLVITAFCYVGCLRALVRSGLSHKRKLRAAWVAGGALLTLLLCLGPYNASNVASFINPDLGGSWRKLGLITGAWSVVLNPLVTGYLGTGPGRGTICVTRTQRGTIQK

Rat GPR40 = Rat GPR40 (Rattus norvegicus, UniProt Q8K3T4); assay: Rat GPR40 b-arrestin; type: cell-based
Chain of Rat GPR40 (Q8K3T4 whole entry): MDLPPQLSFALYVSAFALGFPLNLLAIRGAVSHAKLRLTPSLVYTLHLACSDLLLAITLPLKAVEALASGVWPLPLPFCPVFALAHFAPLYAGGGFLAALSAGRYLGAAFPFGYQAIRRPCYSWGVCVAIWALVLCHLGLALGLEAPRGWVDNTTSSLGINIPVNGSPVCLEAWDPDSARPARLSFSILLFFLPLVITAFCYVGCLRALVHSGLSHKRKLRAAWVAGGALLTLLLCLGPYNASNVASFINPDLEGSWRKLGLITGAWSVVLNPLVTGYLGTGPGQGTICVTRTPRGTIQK

human GPR40 [4] = molecular target: T3, human GPR40; assay: Human GPR40 IP1; type: cell-based
Human GPR120 [5] = molecular target: T4, Human GPR120 (Homo sapiens, UniProt Q5NUL3); assay: Human GPR120 binding; details: Supplementary Table 1
T4 sequence (Q5NUL3 1-361): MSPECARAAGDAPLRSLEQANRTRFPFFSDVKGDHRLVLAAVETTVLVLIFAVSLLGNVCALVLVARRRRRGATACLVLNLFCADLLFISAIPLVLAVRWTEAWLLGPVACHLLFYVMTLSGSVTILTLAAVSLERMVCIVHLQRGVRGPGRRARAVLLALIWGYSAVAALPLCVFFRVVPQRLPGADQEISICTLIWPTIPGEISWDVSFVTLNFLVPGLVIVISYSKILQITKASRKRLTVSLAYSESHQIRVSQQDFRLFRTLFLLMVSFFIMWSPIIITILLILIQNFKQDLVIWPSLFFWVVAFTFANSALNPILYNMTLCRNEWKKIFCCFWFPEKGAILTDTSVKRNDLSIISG

Human GPR120 [6] = molecular target: T4, Human GPR120; assay: Human GPR120 Calcium (FLIPR); type: cell-based; details: Supplementary Table 1
Human GPR120 [7] = molecular target: T4, Human GPR120; assay: Human GPR120 b-arrestin; type: cell-based; details: Supplementary Table 1
Mouse GPR120 = molecular target: T5, Mouse GPR120 (Mus musculus, UniProt Q7TMA4); assay: Mouse GPR120 b-arrestin; type: cell-based; details: Supplementary Table 1
T5 sequence (Q7TMA4 1-361): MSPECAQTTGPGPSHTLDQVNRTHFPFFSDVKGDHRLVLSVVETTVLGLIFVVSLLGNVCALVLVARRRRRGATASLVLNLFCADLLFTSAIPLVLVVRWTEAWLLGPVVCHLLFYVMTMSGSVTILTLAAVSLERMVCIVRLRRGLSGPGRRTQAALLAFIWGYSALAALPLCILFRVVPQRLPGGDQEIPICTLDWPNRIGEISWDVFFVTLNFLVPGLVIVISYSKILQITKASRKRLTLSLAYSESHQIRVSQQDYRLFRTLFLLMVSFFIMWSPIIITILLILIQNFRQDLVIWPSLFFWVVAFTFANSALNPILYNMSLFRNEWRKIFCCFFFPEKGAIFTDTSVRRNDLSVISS

human PPARalpha = molecular target: T6, human PPARalpha (Homo sapiens, UniProt Q07869); assay: human PPARalpha binding; details: Supplementary Table 1
T6 sequence (Q07869 1-468): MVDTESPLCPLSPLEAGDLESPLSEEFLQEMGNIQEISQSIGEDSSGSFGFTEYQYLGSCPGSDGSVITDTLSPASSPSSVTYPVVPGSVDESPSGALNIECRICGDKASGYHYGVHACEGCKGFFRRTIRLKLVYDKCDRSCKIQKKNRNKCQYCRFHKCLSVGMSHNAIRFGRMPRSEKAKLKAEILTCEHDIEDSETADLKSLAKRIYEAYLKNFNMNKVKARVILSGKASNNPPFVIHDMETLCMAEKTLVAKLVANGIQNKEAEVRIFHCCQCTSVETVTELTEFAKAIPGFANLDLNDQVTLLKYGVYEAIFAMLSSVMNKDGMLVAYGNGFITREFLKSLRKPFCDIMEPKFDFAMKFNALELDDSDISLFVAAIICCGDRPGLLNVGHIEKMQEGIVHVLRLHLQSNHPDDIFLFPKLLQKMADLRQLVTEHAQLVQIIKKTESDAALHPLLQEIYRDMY

human PPARdelta = molecular target: T7, human PPARdelta (Homo sapiens, UniProt Q03181); assay: human PPARdelta binding; details: Supplementary Table 1
T7 sequence (Q03181 1-441): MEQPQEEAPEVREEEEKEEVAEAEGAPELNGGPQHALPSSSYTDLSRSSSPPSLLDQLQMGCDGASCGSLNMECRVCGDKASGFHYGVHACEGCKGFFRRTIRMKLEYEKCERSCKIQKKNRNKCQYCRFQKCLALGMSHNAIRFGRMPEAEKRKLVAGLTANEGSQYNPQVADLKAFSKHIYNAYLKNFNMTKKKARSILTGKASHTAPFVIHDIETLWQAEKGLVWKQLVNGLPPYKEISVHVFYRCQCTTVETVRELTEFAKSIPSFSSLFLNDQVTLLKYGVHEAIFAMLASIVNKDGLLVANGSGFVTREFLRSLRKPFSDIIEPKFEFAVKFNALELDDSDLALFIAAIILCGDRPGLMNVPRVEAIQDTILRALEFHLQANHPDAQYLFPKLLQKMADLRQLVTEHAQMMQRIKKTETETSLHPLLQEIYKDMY

human PPARgama = molecular target: T8, human PPARgama (Homo sapiens, UniProt P37231); assay: human PPARgamma binding; details: Supplementary Table 1
T8 sequence (P37231 1-505): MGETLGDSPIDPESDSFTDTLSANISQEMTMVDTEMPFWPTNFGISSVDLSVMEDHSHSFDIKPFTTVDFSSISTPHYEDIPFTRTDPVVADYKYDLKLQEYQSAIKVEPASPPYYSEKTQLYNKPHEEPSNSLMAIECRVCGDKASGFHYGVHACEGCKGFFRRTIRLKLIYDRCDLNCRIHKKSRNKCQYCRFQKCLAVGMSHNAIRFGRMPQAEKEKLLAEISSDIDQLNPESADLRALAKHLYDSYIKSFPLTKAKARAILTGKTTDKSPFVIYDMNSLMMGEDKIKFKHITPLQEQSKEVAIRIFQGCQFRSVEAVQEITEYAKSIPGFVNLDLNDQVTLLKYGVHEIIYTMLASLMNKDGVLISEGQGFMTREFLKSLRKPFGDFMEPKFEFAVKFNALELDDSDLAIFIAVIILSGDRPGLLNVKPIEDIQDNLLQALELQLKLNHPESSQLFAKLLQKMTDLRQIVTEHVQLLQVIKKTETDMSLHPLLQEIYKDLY

Molecule | Ki (human GPR40 (A2 site)) [nM] | Ki (human GPR40 (A1 site)) [nM] | EC50 (human GPR40 [2]) [nM] | Emax (human GPR40 [2]) [%] | EC50 (human GPR40 [3]) [nM] | Emax (human GPR40 [3]) [%] | EC50 (Mouse GPR40) [nM] | Emax (Mouse GPR40) [%] | EC50 (Rat GPR40) [nM] | Emax (Rat GPR40) [%] | EC50 (human GPR40 [4]) [nM] | Emax (human GPR40 [4]) [%] | EC50 (Human GPR120 [6]) [nM] | Ki (human PPARalpha) [nM] | IC50 (human PPARdelta) [nM] | Ki (human PPARgama) [nM] | other results
semaglutide [reference compound] |  |  |  |  |  |  |  |  |  |  |  |  |  |  |  |  | glucose lowering in IPGTT, GPR40 KO [1]: can be triggered; insulin secretion in IPGTT, GPR40 KO [1]: can be triggered
N[C@@H](CC(=O)N1CCn2c(nnc2C(F)(F)F)C1)Cc1cc(F)c(F)cc1F [sitagliptin, reference compound] |  |  |  |  |  |  |  |  |  |  |  |  |  |  |  |  | blood glucose in OGTT, GPR40 KO (GPR40 KO mice): respond to glucose lowering
CC#C[C@@H](CC(=O)O)c1ccc(OCc2ccc(CN3CCC4(C=Cc5ccccc54)CC3)cc2)cc1 [LY2881835] | > 3720 | 4.7 | 9.1 | 62 | 8.7 | 137 | 0.8 | 133 | 2 | 124 | 1.24 | 162 | > 50000 | > 10000 | > 10000 | > 10000 | Ki (Human GPR120 [5]): > 100000 nM; EC50 (Human GPR120 [7]): > 100000 nM; EC50 (Mouse GPR120): > 50000 nM
COc1ccc(F)c(-c2ccc(COc3cccc([C@@H](CC(=O)O)C4CC4)c3)cc2C2=CCCC2(C)C)c1 [AM-1638] | 1.4 | > 6910 | 1.7 | 98 | 16 | 153 | 22.7 | 112 | 105 | 113 | 0.25 | 197 | 2870 | 3170 | > 10000 | > 10000 | Emax (Human GPR120 [6]): 63%
